Read-outs that look alike come from different tables or passages of the source.
Tests used:
[1] = Stability test in plasma; type: in vitro ADME; settings: Rat plasma, 37° C.; for Residue % (180 minutes elapsed), Mean: 5 mM
Procedure: (§1) In order to test the stability (in vivo) of the Example compounds according to the present invention, the compounds of Examples 2, 3, 4, 8 and 15 were administered intravenously, and plasma concentrations over time were observed. In addition, procaine was used as a positive control. Plasma stability was measured three times by administering the test compound at a concentration of 5 mM to human, rat, or mouse plasma (90 μL) at 37° C. Results thereof are shown in Table below and FIGS. 3A to 3E.

[2] = Stability test in plasma; type: in vitro ADME; set-up: Residue % (180 minutes elapsed), Mean: dose or concentration left out as unconfirmed; settings: 37° C.
Procedure: as §1, with “of 5 mM” left out

[3] = Pharmacokinetic (PK) test; type: in vivo, male ICR mice; settings: for F, Mean: Oral 20 mg/kg vs intravenous 5 mg/kg, calculated using AUClast; for CL, Mean / Vd / AUC(0-inf) / AUC(0-t) / clearance / MRT inf / half-life / Cmax / Tmax: mice, n=3; for Vd / AUC(0-inf) / AUC(0-t) / clearance / MRT inf / half-life / Cmax / Tmax: male, ICR, mouse, plasma; for Vd: iv; for AUC(0-inf): read-out: AUCinf, Mean; for AUC(0-t): read-out: AUClast, Mean; for clearance: read-out: CL, Mean (converted); for MRT inf: read-out: MRTinf, Mean; for half-life: read-out: t1/2, Mean (converted)
Procedure: Pharmacokinetic (PK) parameters of the Example compounds according to the present invention were determined using male ICR mice as follows (n=3).
Pharmacokinetic (PK) parameters were measured by non-compartmental analysis of plasma concentration-time curves using Kinetica™ 4.4.1 (Thermo Fisher Scientific, USA). Results thereof are shown in Table below and FIGS. 5A to 5C. In Table below, “F” parameter was calculated using AUClast, “N/A” indicates the phrase not applicable, and “NC” indicates the phrase not calculated.

[4] = system: HeLa cells; experiment: Anti-proliferative activity test in HeLa cell line (MTT); type: cell-based; settings: Homo sapiens, 48 h, grown for 2 days, mean of 2
Procedure: HeLa cells (American Type Culture Collection: ATCC, USA), a human cervical cancer cell line, were seeded in a 96-well plate at 3×10^3 cells/well, and the cells were then treated with compounds of Examples or Comparative Example according to the present invention and grown for 2 days. Then, MTT (3-(4,5-dimethylthiazol-2-yl)-2,5-diphenyltetrazolium bromide) reagent was added at 10 μL/well. After 2 hours, absorbance was measured at “OD 450” and statistical values were obtained using Prism™6 program. The data shown in Table below are mean values of results obtained by repeating the analysis twice.

[5] = Stability in buffer (line of the metabolic stability test); type: in vitro ADME
Procedure: (§2) The test compounds at a concentration of […] were administered in the presence or absence of NADPH (1 mM) to liver […] (0.5 mg protein/mL) of humans, rats and mice, and metabolic stability was tested at 37° C. for 30 minutes. In addition, buspirone was used as a positive control. Results thereof are shown in Table below and FIGS. 4A to 4E.

[6] = system: HeLa CCL2 tumor; experiment: Anticancer effect test in human cervical cancer cell (HeLa CCL2) transplantation model; type: in vivo, BALB/C female nude mouse; settings: 25 mg/kg intraperitoneally, p<0.001; for tumor growth inhibition: 0-28 days, Day 28, tumor size; for reduction in tumor weight compared with solvent control: excised tumor
Procedure: After thawing the human […] cancer cell line HeLa CCL2 that was stored frozen in liquid nitrogen, cell culture was performed. The cells were cultured for an appropriate period in a CO2 incubator (Forma, USA) at a temperature of 37° C. and a CO2 concentration of 5%.
On the last day of culture, all cancer cells were collected and counted, and the cell concentration was adjusted to 1×10^7 cells/mL using serum free media. The cell culture solution as adjusted above was injected subcutaneously into the axillary region between the shoulder blade and the chest wall in an amount of 0.3 mL (3×10^6 cells/mouse) per BALB/C female nude mouse (5 weeks old, Nara Biotech).
Immediately prior to administration, the compounds were dissolved in a mixture of DMAC (dimethylacetamide) 20%+Tween80 5%+20% HPbCD (2-hydroxypropyl-β-cyclodextrin) 75% at an appropriate concentration and used. The prepared substances were repeatedly administered intraperitoneally in an amount of 0.2 mL (10 mL/kg) per 20 g of a mouse according to the following administration schedule. • carrier, the compound of Example 4, the compound of Example 8, and the compound of Example 15 (25 mg/kg), 0-28 days 4.3. Confirmation of Change in Tumor Size
After cancer cell transplantation, the tumor size of each animal subject was measured a total of 11 times in 3 directions using a vernier caliper from when the mean tumor size reached 57.0 mm^3 until Day 28, and calculated by the formula of length×width×height/2.
In order to test the degree of toxicity upon repeated intraperitoneal administration of the Example compound to HeLa CCL2 cancer cell transplantation nude mice, general symptoms and body weight changes of the animal subjects were observed during the administration period.
On Day 28 after drug administration, blood was collected from the mouse ophthalmic veins in 2 hours post the last administration, and the mice were killed using CO2 gas. Images of the mice were taken, and the tumor was separated and weighed on an electronic scale. After taking the images, each tumor was divided in half and fixed in liquid nitrogen and formalin, respectively. On […] after drug administration, the HeLa CCL2 tumor was excised and weighed.

[7] = Solubility test in administration solvent; type: physicochemical; settings: 2.0 mg/mL, Solvent A 20%
Procedure: The test substances were accurately weighed and placed in a glass vial. Then, solvent A was added in an amount corresponding to 20% of the desired final solution volume, and the mixture was completely dissolved by treatment with a vortexer and sonication. Next, solvent B in an amount corresponding to 10% or 20% of the final solution volume was added and mixed well. […] Finally, the mixture was subjected to sonication for 30 seconds. The mixed solution was prepared and used immediately before administration in the experiment. • Solvent A: Dimethylacetamide produced by SigmaAldrich • Solvent B: Cremophor EL produced by SigmaAldrich • Solvent C: 20% HPbCD ((2-Hydroxypropyl)-β-cyclodextrin produced by SigmaAldrich) in deionized water

[8] = Metabolic stability test in liver microsomes; type: in vitro ADME; settings: 0.5 mg protein/mL, 37° C.
Procedure: as §2

[9] = 5 mg/kg, Intravenous administration, 5 mg/kg, read-out: Vss, Mean
[10] = 5 mg/kg, Intravenous administration, 5 mg/kg, read-out: Vz, Mean
[11] = Intravenous administration, 5 mg/kg

Row | SMILES | half-life at 5 mM [1] [min] | Residue % (180 minutes elapsed), Mean [1] [%] | Residue % (180 minutes elapsed), Mean ([2]; Human plasma) [%] | half-life at 5 mM ([2]; Human plasma) [min] | Residue % (180 minutes elapsed), Mean ([2]; Mouse plasma) [%] | half-life at 5 mM ([2]; Mouse plasma) [min] | F, Mean [3] [%] | CL, Mean ([3]; Oral administration, 20 mg/kg) [mL/min/kg] | Vd [3, 9] [L/kg] | Vd [3, 10] [L/kg] | AUC(0-inf) [3, 11] [ng·h/mL] | AUC(0-t) [3, 11] [ng·h/mL] | clearance [3, 11] [mL/min/kg] | MRT inf [3, 11] [min] | half-life [3, 11] [min] | Cmax ([3]; Oral administration, 20 mg/kg) [ng/mL] | Tmax ([3]; Oral administration, 20 mg/kg) [min] | AUC(0-inf) ([3]; Oral administration, 20 mg/kg) [ng·h/mL] | AUC(0-t) ([3]; Oral administration, 20 mg/kg) [ng·h/mL] | MRT inf ([3]; Oral administration, 20 mg/kg) [min] | also measured
1 | CCOCCn1c(Cl)c(/C=N/NC(=O)c2cc3cc(C)ccc3o2)c2cc(OC)ccc21 [Example 8, (E)-N′-[(2-chloro-1-(2-ethoxyethyl)-5-methoxy-1H-indol-3-yl]methylene}-5-methylbenzofuran-2-carbohydrazide] | > 180 | 49.25 | 26.05 | > 180 | 74.16 | > 180 | 1.0 | 3265.3 | 0.5 | 0.85 | 2390 | 2380 | 35 | 14.4 | 16.8 | 93.9 | 34.8 | 103 | 96.3 | 54 | half-life ([3]; Oral administration, 20 mg/kg): 24 min; IC50 [4]: 82 nM; Residue (%) after culturing for 30 min [5]: 98.98 ± 2.07%; tumor growth inhibition [6]: 38.35%; reduction in tumor weight compared with solvent control [6]: 40.5%; Solubility evaluation result ([7]; Solvent B 20%, Solvent C 60% (dimethylacetamide/Cremophor EL/20% HPbCD)): Soluble; Residue (%) after culturing for 30 min ([8]; Human, +NADPH): 24.11 ± 0.46%; Residue (%) after culturing for 30 min ([8]; Human, −NADPH): 99.18 ± 1.92%; Residue (%) after culturing for 30 min ([8]; Mouse, +NADPH): 11.41 ± 2.47%; Residue (%) after culturing for 30 min ([8]; Mouse, −NADPH): 89.93 ± 6.72%; Residue (%) after culturing for 30 min ([8]; Rat, +NADPH): 4.55 ± 0.94%; Residue (%) after culturing for 30 min ([8]; Rat, −NADPH): 85.58 ± 3.34%
2 | CCOCCn1c(Cl)c(/C=N/NC(=O)c2cc3cc(C)ccc3o2)c2ccccc21 [Example 4, (E)-N′-[(2-chloro-1-(2-ethoxyethyl)-1H-indol-3-yl]methylene}-5-methylbenzofuran-2-carbohydrazide] | > 180 | 67.11 | 49.41 | > 180 | 60.44 | > 180 | 4.8 | 1152 | 0.98 | 1.88 | 1500 | 1480 | 55.7 | 17.4 | 23.4 | 431 | 15 | 295 | 285 | 42 | half-life ([3]; Oral administration, 20 mg/kg): 24 min; IC50 [4]: 180 nM; Residue (%) after culturing for 30 min [5]: 100.93 ± 11.79%; tumor growth inhibition [6]: 56.71%; reduction in tumor weight compared with solvent control [6]: 57.1%; Solubility evaluation result ([7]; Solvent B 10%, Solvent C 70% (dimethylacetamide/Cremophor EL/20% HPbCD)): Soluble; Residue (%) after culturing for 30 min ([8]; Human, +NADPH): 15.76 ± 0.89%; Residue (%) after culturing for 30 min ([8]; Human, −NADPH): 77.60 ± 1.39%; Residue (%) after culturing for 30 min ([8]; Mouse, +NADPH): 5.48 ± 0.04%; Residue (%) after culturing for 30 min ([8]; Mouse, −NADPH): 47.95 ± 2.93%; Residue (%) after culturing for 30 min ([8]; Rat, +NADPH): 3.23 ± 0.55%; Residue (%) after culturing for 30 min ([8]; Rat, −NADPH): 69.63 ± 1.94%
